Experimental data reported in patent publication US20230416248A1, “COMPOUNDS AND USES THEREOF” (Foghorn Therapeutics Inc., priority 2020, published 2023).

Legend:
[1] = target: T1, BRM (Homo sapiens, UniProt P51531); assay: ATPase catalytic activity of BRM, ADP-Glo in vitro biochemical assay; settings: for IC50: ATPase catalytic activity, ADP-Glo, 30 nM BRM, 400 μM ATP; for Ratio*: ratio of BRG1 IC50 to BRM IC50
T1 construct: made in house; host or cells: High Five insect cells
In short: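 ADP-Glo luminescence, after depletion of leftover ATP and conversion of ADP, reported the activity. The 1 h room-temperature reaction held 400 μM ATP, 20 nM salmon sperm DNA and 30 nM BRM in 20 mM Tris pH 8, 20 mM MgCl2, 50 mM NaCl, 0.1% Tween-20, 1 mM DTT.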

[2] = target: T2, BRG-1 (Homo sapiens, UniProt P51532); assay: ATPase catalytic activity of BRG-1, ADP-Glo in vitro biochemical assay; settings: ATPase catalytic activity, ADP-Glo; 30 nM BRG-1, 400 μM ATP; read-out: BRG1 IC50
T2 construct: made in house; host or cells: High Five insect cells
T2 sequence (P51532 whole entry): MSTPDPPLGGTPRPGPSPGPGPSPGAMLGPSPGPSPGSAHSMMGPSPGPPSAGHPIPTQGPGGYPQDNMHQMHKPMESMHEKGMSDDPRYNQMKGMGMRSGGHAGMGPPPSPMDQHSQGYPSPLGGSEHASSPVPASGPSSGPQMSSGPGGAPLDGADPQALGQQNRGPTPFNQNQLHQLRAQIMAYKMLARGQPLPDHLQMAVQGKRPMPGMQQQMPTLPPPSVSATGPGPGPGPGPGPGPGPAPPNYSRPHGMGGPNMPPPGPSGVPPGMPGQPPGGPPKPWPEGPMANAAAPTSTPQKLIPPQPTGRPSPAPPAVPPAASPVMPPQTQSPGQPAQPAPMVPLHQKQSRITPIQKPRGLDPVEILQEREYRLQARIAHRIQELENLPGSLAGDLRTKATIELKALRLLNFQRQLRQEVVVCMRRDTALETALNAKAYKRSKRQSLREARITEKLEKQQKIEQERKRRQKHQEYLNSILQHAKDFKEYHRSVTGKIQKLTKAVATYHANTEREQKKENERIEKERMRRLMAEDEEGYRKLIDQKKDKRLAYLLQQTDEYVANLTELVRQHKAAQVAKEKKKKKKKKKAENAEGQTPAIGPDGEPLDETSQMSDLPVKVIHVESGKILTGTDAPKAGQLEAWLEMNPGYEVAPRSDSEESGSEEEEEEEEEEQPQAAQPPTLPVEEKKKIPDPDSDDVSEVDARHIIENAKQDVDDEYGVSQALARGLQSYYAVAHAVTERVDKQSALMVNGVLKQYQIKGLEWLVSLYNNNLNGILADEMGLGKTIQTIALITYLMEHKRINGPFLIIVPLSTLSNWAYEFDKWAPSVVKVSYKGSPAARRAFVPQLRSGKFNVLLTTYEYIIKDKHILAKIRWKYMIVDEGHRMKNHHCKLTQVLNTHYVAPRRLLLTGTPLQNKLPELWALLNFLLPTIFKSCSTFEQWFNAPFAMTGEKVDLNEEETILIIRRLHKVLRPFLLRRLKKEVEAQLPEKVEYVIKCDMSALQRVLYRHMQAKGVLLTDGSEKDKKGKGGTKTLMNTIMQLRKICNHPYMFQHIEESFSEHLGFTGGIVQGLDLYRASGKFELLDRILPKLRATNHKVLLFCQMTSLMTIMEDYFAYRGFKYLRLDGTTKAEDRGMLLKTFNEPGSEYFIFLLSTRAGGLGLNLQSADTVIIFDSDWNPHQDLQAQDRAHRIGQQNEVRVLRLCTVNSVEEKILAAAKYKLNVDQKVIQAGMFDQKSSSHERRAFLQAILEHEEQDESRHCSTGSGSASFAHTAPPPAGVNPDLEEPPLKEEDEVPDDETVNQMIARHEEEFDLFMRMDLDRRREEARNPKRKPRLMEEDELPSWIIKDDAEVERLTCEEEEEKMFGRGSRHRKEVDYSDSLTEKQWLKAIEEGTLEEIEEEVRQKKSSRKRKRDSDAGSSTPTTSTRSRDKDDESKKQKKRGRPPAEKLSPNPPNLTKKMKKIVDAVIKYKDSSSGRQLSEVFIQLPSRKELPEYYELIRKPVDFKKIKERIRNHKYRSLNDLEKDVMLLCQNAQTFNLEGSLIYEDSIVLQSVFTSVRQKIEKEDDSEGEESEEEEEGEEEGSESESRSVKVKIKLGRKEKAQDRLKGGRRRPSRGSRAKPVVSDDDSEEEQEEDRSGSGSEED
In short: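 Luminescence read-out: ADP formed by BRG-1 ATPase is converted to ATP and detected by luciferase. Residual ATP is first removed with ADP-Glo Reagent for 40 min at RT; detection reagent is then incubated 60 min at RT before reading.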

T1 sequence (P51531 whole entry): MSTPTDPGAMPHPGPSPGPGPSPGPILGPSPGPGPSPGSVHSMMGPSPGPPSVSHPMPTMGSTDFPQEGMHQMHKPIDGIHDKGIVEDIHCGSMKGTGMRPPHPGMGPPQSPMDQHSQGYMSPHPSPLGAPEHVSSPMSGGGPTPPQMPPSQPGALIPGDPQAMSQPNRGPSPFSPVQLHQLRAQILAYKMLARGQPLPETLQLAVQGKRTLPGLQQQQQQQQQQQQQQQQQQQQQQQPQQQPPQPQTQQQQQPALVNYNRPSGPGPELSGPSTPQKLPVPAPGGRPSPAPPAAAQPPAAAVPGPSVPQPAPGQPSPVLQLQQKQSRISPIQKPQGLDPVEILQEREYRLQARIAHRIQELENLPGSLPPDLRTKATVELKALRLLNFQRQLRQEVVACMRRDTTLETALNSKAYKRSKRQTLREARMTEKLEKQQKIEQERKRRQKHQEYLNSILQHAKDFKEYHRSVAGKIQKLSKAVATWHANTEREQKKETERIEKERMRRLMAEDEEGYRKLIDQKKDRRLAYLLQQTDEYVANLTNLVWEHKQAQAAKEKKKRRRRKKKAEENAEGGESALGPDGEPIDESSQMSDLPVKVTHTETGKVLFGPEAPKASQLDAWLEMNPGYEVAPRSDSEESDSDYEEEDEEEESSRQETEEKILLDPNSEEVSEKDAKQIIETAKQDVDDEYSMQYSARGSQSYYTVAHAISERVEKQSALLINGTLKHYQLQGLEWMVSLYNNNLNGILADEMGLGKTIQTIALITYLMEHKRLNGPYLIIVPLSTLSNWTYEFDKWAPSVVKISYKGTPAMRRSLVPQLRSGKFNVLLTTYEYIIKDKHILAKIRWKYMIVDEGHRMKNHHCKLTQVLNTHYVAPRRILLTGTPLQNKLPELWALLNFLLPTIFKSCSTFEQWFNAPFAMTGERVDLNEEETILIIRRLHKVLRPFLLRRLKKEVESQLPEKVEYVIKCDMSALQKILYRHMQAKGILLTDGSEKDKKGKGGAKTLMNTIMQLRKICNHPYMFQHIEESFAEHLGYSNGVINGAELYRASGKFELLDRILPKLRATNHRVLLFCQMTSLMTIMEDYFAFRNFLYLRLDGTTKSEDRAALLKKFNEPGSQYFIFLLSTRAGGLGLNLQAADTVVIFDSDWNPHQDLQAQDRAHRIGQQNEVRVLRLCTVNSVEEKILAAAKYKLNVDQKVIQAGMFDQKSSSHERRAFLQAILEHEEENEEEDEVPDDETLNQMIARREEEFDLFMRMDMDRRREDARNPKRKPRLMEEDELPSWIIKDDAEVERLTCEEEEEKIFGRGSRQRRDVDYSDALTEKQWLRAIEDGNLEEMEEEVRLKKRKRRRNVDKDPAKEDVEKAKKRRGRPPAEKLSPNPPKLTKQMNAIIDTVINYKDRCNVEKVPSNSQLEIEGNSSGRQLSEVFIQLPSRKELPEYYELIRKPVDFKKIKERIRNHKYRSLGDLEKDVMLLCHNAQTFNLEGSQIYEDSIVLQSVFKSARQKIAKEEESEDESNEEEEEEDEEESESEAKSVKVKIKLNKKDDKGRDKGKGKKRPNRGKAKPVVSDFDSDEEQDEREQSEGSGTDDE

Row | Compound | IC50 [1] | Ratio* [1] | IC50 [2]
1 | COc1nc(C)ccc1-c1ccc2cnc(CNC(=O)c3ccc4c(c3)S(=O)(=O)[C@@H](C)COC4)cc2n1 [Compound 411] | 14.6 nM | 18.90 | 275 nM
2 | COC[C@H]1C[C@H]1N(C)c1cccc(-c2ccc3cnc(CNC(=O)c4ccc5c(c4)S(=O)(=O)CCOC5)cc3n2)n1 [Compound 412] | 76.5 nM | 8.53 | 653 nM
3 | COC[C@@H]1C[C@@H]1N(C)c1cccc(-c2ccc3cnc(CNC(=O)c4ccc5c(c4)S(=O)(=O)CCOC5)cc3n2)n1 [Compound 413] | 12.9 nM | 16.27 | 210 nM
4 | CC1CCc2ccc(-c3ccc4cnc(CNC(=O)c5ccc6c(c5)S(=O)(=O)CCOC6)cc4n3)nc2N1C (stereo not drawn) [Compound 414] | 23.3 nM | 8.27 | 193 nM
5 | C[C@@H]1CN(c2cccc(-c3ccc4cnc(CNC(=O)c5ccc6c(c5)S(=O)(=O)CCCN6C)cc4n3)n2)C[C@H](C)O1 [Compound 415] | 20.6 nM | 23.93 | 494 nM
6 | C[C@@H]1CCS(=O)(=O)c2cc(C(=O)NCc3cc4nc(-c5cccc(N6C[C@@H](C)O[C@@H](C)C6)n5)ccc4cn3)ccc2O1 [Compound 416] | 98.3 nM | 21.63 | 2130 nM
7 | C[C@@H]1CN(c2cccc(-c3ccc4cnc(CNC(=O)c5ccc6c(c5)S(=O)(=O)CC[C@H](C)O6)cc4n3)n2)C[C@H](C)O1 [Compound 418] | 13.6 nM | 14.19 | 193 nM
8 | COc1cc(C(C)(F)F)ccc1-c1ccc2cnc(CNC(=O)c3ccc4c(c3)S(=O)(=O)CCOC4)cc2n1 [Compound 419] | 24.5 nM | 15.63 | 384 nM
9 | Cc1ccc2c(c1)OCCN2c1ccc2cnc(CNC(=O)c3ccc4c(c3)S(=O)(=O)CCOC4)cc2n1 [Compound 420] | 4.2 nM | 10.13 | 42.6 nM
10 | O=C(NCc1cc2nc(-c3cccc4c3CC3COCCN43)ccc2cn1)c1ccc2c(c1)S(=O)(=O)CCOC2 (stereo not drawn) [Compound 421] | 56.8 nM | 14.57 | 828 nM
11 | O=C(NCc1cc2nc(-c3cccc(C4CC4)n3)ccc2nn1)c1cc(F)c2c(c1)S(=O)(=O)CCOC2 [Compound 422] | 10.9 nM | 28.45 | 310 nM
12 | C[C@H]1COCc2ccc(C(=O)NCc3cc4nc(-c5cccc(C6CC6)n5)ccc4nn3)cc2S1(=O)=O [Compound 423] | 15.2 nM | 32.23 | 491 nM
13 | O=C(NCc1cc2nc(-c3cccc(C4CC4)n3)cnc2cn1)c1cc(F)c2c(c1)S(=O)(=O)CCOC2 [Compound 424] | 20.8 nM | 29.03 | 603 nM
14 | CC1CCc2ccc(-c3ccc4cnc(CNC(=O)c5ccc6c(c5)S(=O)(=O)CCOC6)cc4n3)nc2N1C1CC1 (stereo not drawn) [Compound 425] | 101 nM | 9.58 | 966 nM
15 | CC1COc2ccc(-c3ccc4cnc(CNC(=O)c5ccc6c(c5)S(=O)(=O)CCOC6)cc4n3)nc2N1C (stereo not drawn) [Compound 426] | 23.8 nM | 5.71 | 136 nM
16 | O=C(NCc1cc2nc(-c3cccc(OC4CC4(F)F)n3)ccc2cn1)c1ccc2c(c1)S(=O)(=O)CCOC2 (stereo not drawn) [Compound 427] | 47.3 nM | 9.12 | 431 nM
17 | O=C(NCc1cc2nc(-c3cccc(N(CC4COC4)C4CC4)n3)ccc2cn1)c1ccc2c(c1)S(=O)(=O)CCOC2 [Compound 428] | 50.3 nM | 6.45 | 324 nM
18 | Cc1cnc2c(c1C)CCCN2c1ccc2cnc(CNC(=O)c3ccc4c(c3)S(=O)(=O)CCOC4)cc2n1 [Compound 429] | 7.4 nM | 10.32 | 76.4 nM
19 | COc1c(-c2ccc3cnc(CNC(=O)c4ccc5c(c4)S(=O)(=O)CCOC5)cc3n2)cccc1C1CC1 [Compound 430] | 477 nM | 5.06 | 2410 nM
20 | C[C@@H]1CN(c2cccc(-c3ccc4cnc(CNC(=O)c5cc(Cl)c6c(c5)S(=O)(=O)[C@@H](C)COC6)cc4n3)n2)C[C@H](C)O1 [Compound 431] | 16.1 nM | 9.43 | 152 nM
21 | C[C@@H]1CN(c2cccc(-c3ccc4cnc(CNC(=O)c5ccc6c(c5)S(=O)(=O)CC[C@@H](C5CC5)O6)cc4n3)n2)C[C@H](C)O1 [Compound 433] | 331 nM | 13.59 | 4500 nM
22 | O=C(NCc1cc2nc(-c3cncc(C4CC4)n3)ccc2cn1)c1cnc2c(c1)S(=O)(=O)CCCC2(F)F [Compound 434] | 118 nM | 13.52 | 1590 nM
23 | C[C@@H]1CN(c2cccc(-c3ccc4cnc(CNC(=O)c5ccc6c(c5)S(=O)(=O)CC[C@H](C5CC5)O6)cc4n3)n2)C[C@H](C)O1 [Compound 435] | 230 nM | 18.45 | 4250 nM

Row | Compound | IC50 [1] | Ratio* [1] | IC50 [2]
24 | COC[C@H]1C[C@@H](N(C)c2cccc(-c3ccc4cnc(CNC(=O)c5ccc6c(c5)S(=O)(=O)CCOC6)cc4n3)n2)C1 [Compound 436] | 15 nM | 15.10 | 226 nM
25 | CO[C@H]1CCN(c2cccc(-c3ccc4cnc(CNC(=O)c5ccc6c(c5)S(=O)(=O)CCOC6)cc4n3)n2)C[C@H]1C [Compound 437] | 24.8 nM | 11.79 | 292 nM
26 | CO[C@@H]1CCN(c2cccc(-c3ccc4cnc(CNC(=O)c5ccc6c(c5)S(=O)(=O)CCOC6)cc4n3)n2)C[C@@H]1C [Compound 438] | 31.8 nM | 11.23 | 357 nM
27 | COc1ccnc2c1CCCN2c1ccc2cnc(CNC(=O)c3ccc4c(c3)S(=O)(=O)CCOC4)cc2n1 [Compound 439] | 4.4 nM | 10.04 | 43.8 nM
28 | Cc1cnc2c(n1)CCCN2c1ccc2cnc(CNC(=O)c3ccc4c(c3)S(=O)(=O)CCOC4)cc2n1 [Compound 440] | 32.3 nM | 14.01 | 453 nM
29 | CN(C)c1cnc2c(c1)CCCN2c1ccc2cnc(CNC(=O)c3ccc4c(c3)S(=O)(=O)CCOC4)cc2n1 [Compound 441] | 11.7 nM | 8.52 | 99.5 nM
30 | CN1CCN(c2ccc3cnc(CNC(=O)c4ccc5c(c4)S(=O)(=O)CCOC5)cc3n2)c2ncccc21 [Compound 442] | 16.4 nM | 10.89 | 178 nM
31 | C[C@H]1COCc2ccc(C(=O)NCc3cc4nc(-c5cccc(C6CC6)n5)cnc4cn3)cc2S1(=O)=O [Compound 443] | 34.7 nM | 36.53 | 1270 nM
32 | CO[C@H]1CCS(=O)(=O)c2cc(C(=O)NCc3cc4nc(-c5cccc(N6C[C@@H](C)O[C@@H](C)C6)n5)ccc4cn3)ccc2C1 [Compound 444] | 13 nM | 2.12 | 27.5 nM
33 | COCc1ccc2c(n1)N(c1ccc3cnc(CNC(=O)c4ccc5c(c4)S(=O)(=O)CCOC5)cc3n1)CCC2 [Compound 445] | 20.4 nM | 32.29 | 658 nM
34 | CO[C@@H]1CCS(=O)(=O)c2cc(C(=O)NCc3cc4nc(-c5cccc(N6C[C@@H](C)O[C@@H](C)C6)n5)ccc4cn3)ccc2C1 [Compound 446] | 11.2 nM | 2.83 | 31.7 nM
35 | COCc1cnc2c(c1)CCCN2c1ccc2cnc(CNC(=O)c3ccc4c(c3)S(=O)(=O)CCOC4)cc2n1 [Compound 447] | 22.1 nM | 10.05 | 222 nM
36 | CO[C@H](C)Cn1ccc2c(-c3ccc4cnc(CNC(=O)c5ccc6c(c5)S(=O)(=O)CCOC6)cc4n3)ccnc21 [Compound 448] | 263 nM | 13.96 | 3670 nM
37 | CO[C@@H](C)Cn1ccc2c(-c3ccc4cnc(CNC(=O)c5ccc6c(c5)S(=O)(=O)CCOC6)cc4n3)ccnc21 [Compound 449] | 34.9 nM | 14.08 | 491 nM
38 | O=C(NCc1cc2nc(-c3cncc(C4CC4)n3)ccc2cn1)c1cnc2c(c1)S(=O)(=O)CCCCC2 [Compound 450] | 14.9 nM | 12.27 | 183 nM
39 | C[C@@H]1CN(c2cccc(-c3ccc4cnc(CNC(=O)c5cnc6c(c5)S(=O)(=O)CCCCC6)cc4n3)n2)C[C@H](C)O1 [Compound 451] | 5 nM | 1.60 | 8 nM
40 | C[C@H]1COCc2ncc(C(=O)NCc3cc4nc(-c5cccc(C6CC6)n5)ccc4cn3)cc2S1(=O)=O [Compound 452] | 44 nM | 21.77 | 958 nM
41 | CCOc1cccc(-c2ccc3cnc(CNC(=O)c4cc(F)c5c(c4)S(=O)(=O)[C@@H](C)COC5)cc3n2)n1 [Compound 453] | 27.4 nM | 21.75 | 595 nM
42 | C[C@@H]1CN(c2cccc(-c3ccc4cnc(CNC(=O)c5ccc6c(c5)S(=O)(=O)CCO[C@@H]6C5CC5)cc4n3)n2)C[C@H](C)O1 [Compound 454] | 25.2 nM | 8.46 | 213 nM
43 | Cc1cc(C(=O)NCc2cc3nc(-c4cccc(N5C[C@@H](C)O[C@@H](C)C5)n4)ccc3cn2)cc2c1OCC[C@H](C)S2(=O)=O [Compound 456] | 18.5 nM | 21.49 | 398 nM
44 | Cc1cc(C(=O)NCc2cc3nc(-c4cccc(N5C[C@@H](C)O[C@@H](C)C5)n4)ccc3cn2)cc2c1COC[C@H](C)S2(=O)=O [Compound 457] | 5.9 nM | 8.14 | 48.3 nM
45 | C[C@H]1COCc2c(F)cc(C(=O)NCc3cc4nc(-c5cccc(C6CC6)n5)ccc4cn3)cc2S1(=O)=O [Compound 458] | 19.2 nM | 34.03 | 654 nM
